Laboratory results from patent US10485235B2, “Aryloxypyrimidinyl ethers as herbicides” (FMC Corporation, priority 2015, dated 2019).

Experiments:
Format in all cases: in vivo
[1] = test system: ducksalad (Heteranthera limosa); assay: Test B flooded paddy test, ducksalad; conditions: 250 g ai/ha, Flood; visual rating after 13 to 15 days; scale 0 to 100, 0 is no effect, 100 is complete control
In short: (§1)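 Seedlings at the 2-leaf stage are flooded to 3 cm and treated via the paddy water. Greenhouse plants are compared with controls after 13 to 15 days and given a 0 (no effect) to 100 (complete control) rating.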

[2] = test system: galium (catchweed bedstraw, Galium aparine); assay: Test A postemergence, galium
In short: (§2)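 Approximately 10-day greenhouse assay. Formulated chemical (non-phytotoxic solvent plus surfactant) applied preemergence to soil over seeds or postemergence to plants of 2 to 10 cm. Endpoint: visual percent control, 0–100.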

[3] = test system: foxtail, giant (giant foxtail, Setaria faberii); assay: Test A postemergence, giant foxtail
In short: as §2

[4] = test system: barnyardgrass (Echinochloa crus-galli); assay: Test A preemergence, barnyardgrass; conditions: Preemergence, 0 to 100 scale (0 no effect, 100 complete control)
In short: as §2

corn (Zea mays) = assay: Test A postemergence, corn
In short: as §2

[5] = test system: pigweed (Amaranthus retroflexus); assay: Test A postemergence, pigweed
In short: as §2

kochia (Kochia scoparia) [6] = assay: Test A preemergence, kochia; conditions: Preemergence, 0 to 100 scale (0 no effect, 100 complete control)
In short: as §2

[7] = test system: wheat (Triticum aestivum); assay: Test A postemergence, wheat
In short: as §2

[8] = test system: ragweed (common ragweed, Ambrosia elatior); assay: Test A preemergence, ragweed; conditions: Preemergence, 0 to 100 scale (0 no effect, 100 complete control)
In short: as §2

[9] = test system: sedge, umbrella (small-flower umbrella sedge, Cyperus difformis); assay: Test B flooded paddy test, umbrella sedge; conditions: 250 g ai/ha, Flood; visual rating after 13 to 15 days; scale 0 to 100, 0 is no effect, 100 is complete control
In short: as §1

[10] = test system: blackgrass (Alopecurus myosuroides); assay: Test A postemergence, blackgrass
In short: as §2

[11] = test system: ryegrass, Italian (Italian ryegrass, Lolium multiflorum); assay: Test A preemergence, Italian ryegrass; conditions: Preemergence, 0 to 100 scale (0 no effect, 100 complete control)
In short: as §2

[12] = test system: foxtail, giant (giant foxtail, Setaria faberii); assay: Test A preemergence, giant foxtail; conditions: Preemergence, 0 to 100 scale (0 no effect, 100 complete control)
In short: as §2

kochia (Kochia scoparia) [13] = assay: Test A postemergence, kochia
In short: as §2

[14] = test system: barnyardgrass (Echinochloa crus-galli); assay: Test A postemergence, barnyardgrass
In short: as §2

[15] = test system: barnyardgrass (Echinochloa crus-galli); assay: Test B flooded paddy test, barnyardgrass; conditions: 250 g ai/ha, Flood; visual rating after 13 to 15 days; scale 0 to 100, 0 is no effect, 100 is complete control
In short: as §1

[16] = test system: ragweed (common ragweed, Ambrosia elatior); assay: Test A postemergence, ragweed
In short: as §2

[17] = test system: pigweed (Amaranthus retroflexus); assay: Test A preemergence, pigweed; conditions: Preemergence, 0 to 100 scale (0 no effect, 100 complete control)
In short: as §2

[18] = test system: ryegrass, Italian (Italian ryegrass, Lolium multiflorum); assay: Test A postemergence, Italian ryegrass
In short: as §2

rice (Oryza sativa) = assay: Test B flooded paddy test, rice; conditions: 250 g ai/ha, Flood; visual rating after 13 to 15 days; scale 0 to 100, 0 is no effect, 100 is complete control
In short: as §1

[19] = 125 g ai/ha, postemergence, 0 to 100 scale, 0 is no effect, 100 is complete control, approximately 10 days
[20] = Postemergence, 31 g ai/ha, 0 to 100 scale (0 no effect, 100 complete control)

Row | Compound | Plant response rating, Ducksalad [1] | Plant response rating, Galium [2, 19] | Plant response rating, Galium [2, 20] | Plant response rating, Foxtail, Giant [3, 19] | Plant response rating, Foxtail, Giant [3, 20] | Plant response rating, Barnyardgrass ([4]; 31 g ai/ha) | Plant response rating, Barnyardgrass ([4]; 125 g ai/ha) | Plant response rating, Corn (corn (Zea mays); [19]) | Plant response rating, Corn (corn (Zea mays); [20]) | Plant response rating, Pigweed [5, 19] | Plant response rating, Pigweed [5, 20] | Plant response rating, Kochia (kochia (Kochia scoparia) [6]; 31 g ai/ha) | Plant response rating, Kochia (kochia (Kochia scoparia) [6]; 125 g ai/ha) | Plant response rating, Wheat [7, 19] | Plant response rating, Wheat [7, 20] | Plant response rating, Ragweed ([8]; 31 g ai/ha) | Plant response rating, Ragweed ([8]; 125 g ai/ha) | Plant response rating, Sedge, Umbrella [9] | Plant response rating, Blackgrass [10, 19] | Plant response rating, Blackgrass [10, 20] | also measured
1 | Cl/C=C/COc1c(I)cccc1Oc1ncc(Cl)cn1 [Compound 68] | 100 | 60 | 50 | 80 | 30 | 70 | 70 | 30 | 20 | 100 | 80 | 0 | 30 | 0 | 0 | 0 | 0 | 100 | 60 | 20 | Plant response rating, Ryegrass, Italian ([11]; 31 g ai/ha): 0; Plant response rating, Ryegrass, Italian ([11]; 125 g ai/ha): 20; Plant response rating, Foxtail, Giant ([12]; 31 g ai/ha): 70; Plant response rating, Foxtail, Giant ([12]; 125 g ai/ha): 100; Plant response rating, Kochia (kochia (Kochia scoparia) [13]; [19]): 100; Plant response rating, Kochia (kochia (Kochia scoparia) [13]; [20]): 90; Plant response rating, Barnyardgrass [14, 19]: 100; Plant response rating, Barnyardgrass [14, 20]: 60; Plant response rating, Barnyardgrass [15]: 40; Plant response rating, Ragweed [16, 19]: 20; Plant response rating, Ragweed [16, 20]: 0; Plant response rating, Pigweed ([17]; 31 g ai/ha): 0; Plant response rating, Pigweed ([17]; 125 g ai/ha): 100; Plant response rating, Ryegrass, Italian [18, 19]: 30; Plant response rating, Ryegrass, Italian [18, 20]: 0; Plant response rating, Rice (rice (Oryza sativa)): 10
2 | FC(F)(F)CCOc1c(I)cccc1Oc1ncc(Cl)cn1 [Compound 69] | 100 | 100 | 60 | 100 | 40 | 90 | 100 | 70 | 20 | 100 | 100 | 80 | 100 | 30 | 0 | 0 | 0 | 100 | 80 | 30 | Plant response rating, Ryegrass, Italian ([11]; 31 g ai/ha): 10; Plant response rating, Ryegrass, Italian ([11]; 125 g ai/ha): 50; Plant response rating, Foxtail, Giant ([12]; 31 g ai/ha): 90; Plant response rating, Foxtail, Giant ([12]; 125 g ai/ha): 100; Plant response rating, Kochia (kochia (Kochia scoparia) [13]; [19]): 100; Plant response rating, Kochia (kochia (Kochia scoparia) [13]; [20]): 90; Plant response rating, Barnyardgrass [14, 19]: 100; Plant response rating, Barnyardgrass [14, 20]: 60; Plant response rating, Barnyardgrass [15]: 40; Plant response rating, Ragweed [16, 19]: 40; Plant response rating, Ragweed [16, 20]: 30; Plant response rating, Pigweed ([17]; 31 g ai/ha): 90; Plant response rating, Pigweed ([17]; 125 g ai/ha): 100; Plant response rating, Ryegrass, Italian [18, 19]: 90; Plant response rating, Ryegrass, Italian [18, 20]: 0; Plant response rating, Rice (rice (Oryza sativa)): 15
3 | Cc1cccc(Oc2ncc(Cl)cn2)c1OCCCC#N [Compound 70] | 70 | 20 | 0 | 0 | 0 | 0 | 70 | 20 | 0 | 40 | 20 | 0 | 20 | 0 | 0 | 0 | 0 | 50 | 0 | 0 | Plant response rating, Ryegrass, Italian ([11]; 31 g ai/ha): 0; Plant response rating, Ryegrass, Italian ([11]; 125 g ai/ha): 0; Plant response rating, Foxtail, Giant ([12]; 31 g ai/ha): 0; Plant response rating, Foxtail, Giant ([12]; 125 g ai/ha): 30; Plant response rating, Kochia (kochia (Kochia scoparia) [13]; [19]): 30; Plant response rating, Kochia (kochia (Kochia scoparia) [13]; [20]): 20; Plant response rating, Barnyardgrass [14, 19]: 30; Plant response rating, Barnyardgrass [14, 20]: 0; Plant response rating, Barnyardgrass [15]: 0; Plant response rating, Ragweed [16, 19]: 20; Plant response rating, Ragweed [16, 20]: 0; Plant response rating, Pigweed ([17]; 31 g ai/ha): 0; Plant response rating, Pigweed ([17]; 125 g ai/ha): 50; Plant response rating, Ryegrass, Italian [18, 19]: 0; Plant response rating, Ryegrass, Italian [18, 20]: 0; Plant response rating, Rice (rice (Oryza sativa)): 0
4 | C#Cc1cccc(Oc2ncc(Cl)cn2)c1OCCCF [Compound 71] | 0 | 0 | 0 | 0 | 0 | 0 | 0 | 0 | 0 | 0 | 0 | 0 | 0 | 0 | 0 | 0 | 0 | 0 | 0 | 0 | Plant response rating, Ryegrass, Italian ([11]; 31 g ai/ha): 0; Plant response rating, Ryegrass, Italian ([11]; 125 g ai/ha): 0; Plant response rating, Foxtail, Giant ([12]; 31 g ai/ha): 0; Plant response rating, Foxtail, Giant ([12]; 125 g ai/ha): 0; Plant response rating, Kochia (kochia (Kochia scoparia) [13]; [19]): 0; Plant response rating, Kochia (kochia (Kochia scoparia) [13]; [20]): 0; Plant response rating, Barnyardgrass [14, 19]: 0; Plant response rating, Barnyardgrass [14, 20]: 0; Plant response rating, Barnyardgrass [15]: 0; Plant response rating, Ragweed [16, 19]: 0; Plant response rating, Ragweed [16, 20]: 0; Plant response rating, Pigweed ([17]; 31 g ai/ha): 0; Plant response rating, Pigweed ([17]; 125 g ai/ha): 0; Plant response rating, Ryegrass, Italian [18, 19]: 0; Plant response rating, Ryegrass, Italian [18, 20]: 0; Plant response rating, Rice (rice (Oryza sativa)): 0
